# pKi: −log10 of the molar value.
# Target: T1, GABA A α5 (α5β3γ2) (Homo sapiens, UniProt P18507+P31644)
# T1 construct: expressed in transfected cells; host or cells: HEK293, transiently transfected; membrane preparation
# Assay: [3H]flumazenil competition binding, human GABA A α5 receptor
# Settings: human receptor α5β3γ2 transiently transfected in HEK293 cells; competition for [3H]flumazenil 0.5 nM; 1 hour at 4° C.; means of two determinations; read-out: hKi GABA A α5
# Method: Membrane Preparation and Binding Assay
# The affinity of compounds at GABA A receptor subtypes was measured by competition for [3H]flumazenil (85 Ci/mmol; Roche) binding to HEK293 cells expressing rat (stably transfected) or human (transiently transfected) receptors of compositional α1β3γ2, α2β3γ2, α3β3γ2 and α5β3γ2.
# Cell pellets were suspended in Krebs-tris buffer (4.8 mM KCl, 1.2 mM CaCl2, 1.2 mM MgCl2, 120 mM NaCl, 15 mM Tris; pH 7.5; binding assay buffer), homogenized by polytron for ca. 20 sec on ice and centrifuged for 60 min at 4° C. (50000 g; Sorvall, rotor: SM24=20000 rpm). The cell pellets were re-suspended in Krebs-tris buffer and homogenized by polytron for ca. 15 sec on ice. Protein was measured (Bradford method, Bio-Rad) and aliquots of 1 mL were prepared and stored at −80° C.
# Assays were incubated to equilibrium for 1 hour at 4° C. and harvested onto GF/C uni-filters (Packard) by filtration using a Packard harvester and washing with ice-cold wash buffer (50 mM Tris; pH 7.5). After drying, filter-retained radioactivity was detected by liquid scintillation counting. Ki values were calculated using Excel-Fit (Microsoft) and are the means of two determinations.
row,pKi,Compound
1,8.37,"Cc1nc(CCc2c(-c3ccccn3)noc2C)sc1C(=O)NC(C)C [Example 10, 4-Methyl-2-[2-(5-methyl-3-pyridin-2-yl-isoxazol-4-yl)-ethyl]-thiazole-5-carboxylic acid isopropylamide]"
2,8.11,"Cc1nc(CCc2c(-c3ccccn3)noc2C)sc1C(=O)NC1CC1 [Example 11, 4-Methyl-2-[2-(5-methyl-3-pyridin-2-yl-isoxazol-4-yl)-ethyl]-thiazole-5-carboxylic acid cyclopropylamide]"
3,8.38,"Cc1nc(CCc2c(-c3ccccn3)noc2C)sc1C(=O)NCC(F)(F)F [Example 13, 4-Methyl-2-[2-(5-methyl-3-pyridin-2-yl-isoxazol-4-yl)-ethyl]-thiazole-5-carboxylic acid (2,2,2-trifluoro-ethyl)-amide]"
4,7.37,"Cc1nc(CCc2c(-c3ccccn3)noc2C)sc1C(=O)N1CCSCC1 [Example 17, {4-Methyl-2-[2-(5-methyl-3-pyridin-2-yl-isoxazol-4-yl)-ethyl]-thiazol-5-yl}-thiomorpholin-4-yl-methanone]"
5,7.40,"COC(=O)c1cnc(CCc2c(-c3ccccn3)noc2C)s1 [Example 21, 2-[2-(5-Methyl-3-pyridin-2-yl-isoxazol-4-yl)-ethyl]-thiazole-5-carboxylic acid methyl ester]"
6,7.74,"Cc1onc(-c2ccccn2)c1CCc1ncc(C(=O)NC(C)C)s1 [Example 22, 2-[2-(5-Methyl-3-pyridin-2-yl-isoxazol-4-yl)-ethyl]-thiazole-5-carboxylic acid isopropylamide]"
7,7.58,"Cc1onc(-c2ccccn2)c1CCc1ncc(C(=O)NC2CC2)s1 [Example 23, 2-[2-(5-Methyl-3-pyridin-2-yl-isoxazol-4-yl)-ethyl]-thiazole-5-carboxylic acid cyclo-propylamide]"
8,7.73,"Cc1onc(-c2ccccn2)c1CCc1ncc(C(=O)NC2CCOCC2)s1 [Example 24, 2-[2-(5-Methyl-3-pyridin-2-yl-isoxazol-4-yl)-ethyl]-thiazole-5-carboxylic acid (tetra-hydro-pyran-4-yl)-amide]"
9,7.47,"Cc1onc(-c2ccccn2)c1CCc1ncc(C(N)=O)s1 [Example 25, 2-[2-(5-Methyl-3-pyridin-2-yl-isoxazol-4-yl)-ethyl]-thiazole-5-carboxylic acid amide]"
10,7.49,"Cc1onc(-c2ccccn2)c1CCc1ncc(C(=O)NCCO)s1 [Example 29, 2-[2-(5-Methyl-3-pyridin-2-yl-isoxazol-4-yl)-ethyl]-thiazole-5-carboxylic acid (2-hydroxy-ethyl)-amide]"
11,8.15,"Cc1nc(CCc2c(-c3ccc(F)cn3)noc2C)sc1C(=O)NC(C)C [Example 32, 2-{2-[3-(5-Fluoro-pyridin-2-yl)-5-methyl-isoxazol-4-yl]-ethyl}-4-methyl-thiazole-5-carboxylic acid isopropylamide]"
12,7.80,"Cc1nc(CCc2c(-c3ccc(F)cn3)noc2C)sc1C(=O)NCC1CC1 [Example 34, 2-{2-[3-(5-Fluoro-pyridin-2-yl)-5-methyl-isoxazol-4-yl]-ethyl}-4-methyl-thiazole-5-carboxylic acid cyclopropylmethyl-amide]"
13,8.18,"Cc1nc(CCc2c(-c3ccc(F)cn3)noc2C)sc1C(=O)NCC(F)(F)F [Example 35, 2-{2-[3-(5-Fluoro-pyridin-2-yl)-5-methyl-isoxazol-4-yl]ethyl}-4-methyl-thiazole-5-carboxylic acid (2,2,2-trifluoro-ethyl)-amide]"
14,7.85,"Cc1nc(CCc2c(-c3ccc(F)cn3)noc2C)sc1C(=O)NCCO [Example 36, 2-{2-[3-(5-Fluoro-pyridin-2-yl)-5-methyl-isoxazol-4-yl]-ethyl}-4-methyl-thiazole-5-carboxylic acid (2-hydroxy-ethyl)-amide]"
15,7.25,"Cc1nc(CCc2c(-c3ccc(F)cn3)noc2C)sc1C(=O)N1CCSCC1 [Example 37, (2-{2-[3-(5-Fluoro-pyridin-2-yl)-5-methyl-isoxazol-4-yl]-ethyl}-4-methyl-thiazol-5-yl)-thiomorpholin-4-yl-methanone]"
16,7.97,"CCNC(=O)c1sc(CCc2c(-c3ccc(F)cn3)noc2C)nc1C [Example 38, 2-{2-[3-(5-Fluoro-pyridin-2-yl)-5-methyl-isoxazol-4-yl]-ethyl}-4-methyl-thiazole-5-carboxylic acid ethylamide]"
17,7.60,"CNC(=O)c1sc(CCc2c(-c3ccc(F)cn3)noc2C)nc1C [Example 39, 2-{2-[3-(5-Fluoro-pyridin-2-yl)-5-methyl-isoxazol-4-yl]-ethyl}-4-methyl-thiazole-5-carboxylic acid methylamide]"
18,7.97,"Cc1onc(-c2ccc(F)cn2)c1CCc1ncc(C(=O)NC(C)C)s1 [Example 41, 2-{2-[3-(5-Fluoro-pyridin-2-yl)-5-methyl-isoxazol-4-yl]-ethyl}-thiazole-5-carboxylic acid isopropylamide]"

# More lines, now with the values behind:
row,Compound,pKi
1,"Cc1nc(CCc2c(-c3ccccn3)noc2C)sc1C(=O)NC1CCOCC1 [Example 9, 4-Methyl-2-[2-(5-methyl-3-pyridin-2-yl-isoxazol-4-yl)-ethyl]-thiazole-5-carboxylic acid (tetrahydro-pyran-4-yl)-amide]",8.24
2,"Cc1nc(CCc2c(-c3ccccn3)noc2C)sc1C(=O)NCC1CC1 [Example 12, 4-Methyl-2-[2-(5-methyl-3-pyridin-2-yl-isoxazol-4-yl)-ethyl]-thiazole-5-carboxylic acid cyclopropylmethyl-amide]",7.87
3,"Cc1nc(CCc2c(-c3ccccn3)noc2C)sc1C(=O)NCCO [Example 14, 4-Methyl-2-[2-(5-methyl-3-pyridin-2-yl-isoxazol-4-yl)-ethyl]-thiazole-5-carboxylic acid (2-hydroxy-ethyl)-amide]",7.85
4,"CCNC(=O)c1sc(CCc2c(-c3ccccn3)noc2C)nc1C [Example 15, 4-Methyl-2-[2-(5-methyl-3-pyridin-2-yl-isoxazol-4-yl)-ethyl]-thiazole-5-carboxylic acid ethylamide]",7.92
5,"CNC(=O)c1sc(CCc2c(-c3ccccn3)noc2C)nc1C [Example 16, 4-Methyl-2-[2-(5-methyl-3-pyridin-2-yl-isoxazol-4-yl)-ethyl]-thiazole-5-carboxylic acid methylamide]",7.67
6,"Cc1nc(CCc2c(-c3ccccn3)noc2C)sc1C(N)=O [Example 18, 4-Methyl-2-[2-(5-methyl-3-pyridin-2-yl-isoxazol-4-yl)-ethyl]-thiazole-5-carboxylic acid amide]",7.49
7,"Cc1nc(CCc2conc2-c2ccccn2)sc1C(=O)NC1CCOCC1 [Example 19, 4-Methyl-2-[2-(3-pyridin-2-yl-isoxazol-4-yl)-ethyl]-thiazole-5-carboxylic acid (tetra-hydro-pyran-4-yl)-amide]",7.06
8,"Cc1nc(CCc2conc2-c2ccccn2)sc1C(=O)NCC(F)(F)F [Example 20, 4-Methyl-2-[2-(3-pyridin-2-yl-isoxazol-4-yl)-ethyl]-thiazole-5-carboxylic acid (2,2,2-trifluoro-ethyl)-amide]",7.04
9,"Cc1onc(-c2ccccn2)c1CCc1ncc(C(=O)NCC2CC2)s1 [Example 26, 2-[2-(5-Methyl-3-pyridin-2-yl-isoxazol-4-yl)-ethyl]-thiazole-5-carboxylic acid cyclo-propylmethyl-amide]",7.46
10,"Cc1onc(-c2ccccn2)c1CCc1ncc(C(=O)NC2CCS(=O)(=O)C2)s1 (stereo not drawn) [Example 27, 2-[2-(5-Methyl-3-pyridin-2-yl-isoxazol-4-yl)-ethyl]-thiazole-5-carboxylic acid (1,1-dioxo-tetrahydrothiophen-3-yl)-amide]",7.85
11,"Cc1onc(-c2ccccn2)c1CCc1ncc(C(=O)NCC(F)(F)F)s1 [Example 28, 2-[2-(5-Methyl-3-pyridin-2-yl-isoxazol-4-yl)-ethyl]-thiazole-5-carboxylic acid (2,2,2-trifluoro-ethyl)-amide]",7.75
12,"COC(=O)c1sc(CCc2c(-c3ccc(F)cn3)noc2C)nc1C [Example 30, 2-{2-[3-(5-Fluoro-pyridin-2-yl)-5-methyl-isoxazol-4-yl]-ethyl}-4-methyl-thiazole-5-carboxylic acid methyl ester]",7.63
13,"Cc1nc(CCc2c(-c3ccc(F)cn3)noc2C)sc1C(=O)NC1CCOCC1 [Example 31, 2-{2-[3-(5-Fluoro-pyridin-2-yl)-5-methyl-isoxazol-4-yl]ethyl}-4-methyl-thiazole-5-carboxylic acid (tetrahydro-pyran-4-yl)-amide]",8.28
14,"Cc1nc(CCc2c(-c3ccc(F)cn3)noc2C)sc1C(=O)NC1CC1 [Example 33, 2-{2-[3-(5-Fluoro-pyridin-2-yl)-5-methyl-isoxazol-4-yl]-ethyl}-4-methyl-thiazole-5-carboxylic acid cyclopropylamide]",8.05
15,"Cc1onc(-c2ccc(F)cn2)c1CCc1ncc(C(=O)NC2CCOCC2)s1 [Example 40, 2-{2-[3-(5-Fluoro-pyridin-2-yl)-5-methyl-isoxazol-4-yl]-ethyl}-thiazole-5-carboxylic acid (tetrahydro-pyran-4-yl)-amide]",7.88
